Experimental data published in US20230129359A1, “MUSCARINIC RECEPTOR 4 ANTAGONISTS AND METHODS OF USE” (Neurocrine Biosciences, Inc., priority 2020, published 2023).

Target: T1, human M4 receptor (Homo sapiens, UniProt P08173)
T1 construct: expressed in transfected cells; host or cells: CHO cells
T1 sequence (P08173 1-479): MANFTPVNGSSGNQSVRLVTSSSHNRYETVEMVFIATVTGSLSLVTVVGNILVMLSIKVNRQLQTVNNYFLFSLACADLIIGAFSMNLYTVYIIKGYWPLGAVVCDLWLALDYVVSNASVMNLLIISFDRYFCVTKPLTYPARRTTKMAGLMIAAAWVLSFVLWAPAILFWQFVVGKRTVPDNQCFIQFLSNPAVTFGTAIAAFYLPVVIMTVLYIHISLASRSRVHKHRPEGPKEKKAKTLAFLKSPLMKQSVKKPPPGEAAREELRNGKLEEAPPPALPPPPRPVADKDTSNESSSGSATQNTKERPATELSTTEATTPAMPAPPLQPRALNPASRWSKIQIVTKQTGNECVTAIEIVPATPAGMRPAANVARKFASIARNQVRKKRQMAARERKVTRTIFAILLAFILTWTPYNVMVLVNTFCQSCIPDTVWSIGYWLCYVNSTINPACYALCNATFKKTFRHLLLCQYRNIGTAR
Test: Radioligand ([3H]N-methylscopolamine) binding assay, membranes from CHO cells expressing human M4 receptor
Conditions: Ki against human M4 receptor; membranes from CHO cells; tritiated N-methylscopolamine 1.5 nM; read-out: K
Protocol: Binding affinity (Ki) for the compounds was measured by inhibition of radioligand binding to membranes from CHO cells expressing human M4 receptor. Membranes were prepared by nitrogen cavitation and differential centrifugation as previously described (Hoare et al., Mol. Pharmacol. 2003 March; 63(3): 751-65). The radioligand employed was tritiated N-methylscopolamine, used at a concentration of 1.5 nM. A dose-response of twelve concentrations of compound was used, ranging from […]. The assay buffer was 50 mM HEPES, 100 mM NaCl, 5 mM MgCl2, 1 mM ethylenediaminetetraacetic acid, pH-adjusted to pH 7.4. Membranes, radioligand and compound were incubated together for 90 minutes at 37° C., in a total volume of 150 μL in a 96-well plate. Receptor-bound radioligand was then collected by harvesting the assay over glass fiber filters pretreated with polyethylenimine to trap the cell membranes, using rapid vacuum filtration. Harvesting and radioactivity counting was conducted as previously described (see, e.g., Hoare et al., Mol. Pharmacol. 2003 63(3):751-65); Erratum at Mol. Pharmacol. 2005 July; 68(1): 260).

| SMILES | Ki [nM] |
| --- | --- |
| Cc1cc(N2C[C@@H](C)N(C(=O)OC3CC4(C3)CN(Cc3ccccc3)C4)[C@@H](C)C2)ccc1F [Compound 525, 2-benzyl-2-azaspiro[3.3]heptan-6-yl (2R,6S)-4-(4-fluoro-3-methylphenyl)-2,6-dimethylpiperazine-1-carboxylate] | 10 to 100 |
| C[C@@H]1CN(c2ncc(C(F)(F)F)cn2)[C@@H](C)CN1C(=O)NC1CC2(C1)CN(Cc1ccc(F)cc1)C2 [Compound 265, (2R,5S)-N-{2-[(4-fluorophenyl)methyl]-2-azaspiro[3.3]heptan-6-yl}-2,5-dimethyl-4-[5-(trifluoromethyl)pyrimidin-2-yl]piperazine-1-carboxamide] | 10 to 100 |
| C[C@@H]1CN(c2nc3ccc(F)cc3s2)C[C@H](C)N1C(=O)NC1CC2(C1)CN(Cc1ccccc1)C2 [Compound 231, (2R,6S)-N-{2-benzyl-2-azaspiro[3.3]heptan-6-yl}-4-(6-fluoro-1,3-benzothiazol-2-yl)-2,6-dimethylpiperazine-1-carboxamide] | < 10 |
| C[C@@H]1CN(c2nc3ccc(C(F)(F)F)cc3s2)CCN1C(=O)NC1CC2(C1)CN(Cc1ccccc1)C2 [Compound 225, (2R)-N-{2-bnezyl-2-azaspiro[3.3]heptan-6-yl}-2-methyl-4-[6-(trifluoromethyl)-1,3-benzothiazol-2-yl]piperazine-1-carboxamide] | < 10 |
| C[C@@H]1CN(c2nc3ccc(F)cc3s2)[C@@H](C)CN1C(=O)OC1CC2(C1)CN(Cc1ccccc1)C2 [Compound 370, 2-benzyl-2-azaspiro[3.3]heptan-6-yl (2R,5S)-4-(6-fluoro-1,3-benzothiazol-2-yl)-2,5-dimethylpiperazine-1-carboxylate] | < 10 |
| O=C(OC1CC2(C1)CN(Cc1ccccc1)C2)N1CC2COCC(C1)N2c1cnc(C(F)(F)F)cn1 [Compound 496, 2-benzyl-2-azaspiro[3.3]heptan-6-yl 9-[5-(trifluoromethyl)pyrazin-2-yl]-3-oxa-7,9-diazabicyclo[3.3.1]nonane-7-carboxylate] | 100 to 1000 |
| C[C@@H]1CN(c2nc3ccc(F)cc3s2)[C@@H](C)CN1C(=O)OC1CC2(C1)CN(Cc1ccc(F)cc1)C2 [Compound 383, 2-[(4-fluorophenyl)methyl]-2-azaspiro[3.3]heptan-6-yl (2R,5S)-4-(6-fluoro-1,3-benzothiazol-2-yl)-2,5-dimethylpiperazine-1-carboxylate] | < 10 |
| C[C@@H]1CN(c2ccc(C(F)(F)F)cc2)[C@@H](C)CN1C(=O)OC1CC2(C1)CN(Cc1ccccc1)C2 [Compound 527, 2-benzyl-2-azaspiro[3.3]heptan-6-yl (2R,5S)-2,5-dimethyl-4-[4-(trifluoromethyl)phenyl]pipera-zine-1-carboxylate] | < 10 |
| O=C(OC1CC2(C1)CN(Cc1ccccc1)C2)N1CCN(c2ccc(C(F)(F)F)cn2)CC1 [Compound 121, 2-benzyl-2-azaspiro[3.3]heptan-6-yl 4-[5-(trifluoromethyl)pyridin-2-yl]piperazine-1-carboxylate] | 100 to 1000 |
| C[C@@H]1CN(c2nc3ccc(F)cc3s2)C[C@H](C)N1C(=O)OC1CC2(C1)CN(Cc1ccc(F)cc1)C2 [Compound 381, 2-[(4-fluorophenyl)methyl]-2-azaspiro[3.3]heptan-6-yl (2R,6S)-4-(6-fluoro-1,3-benzothiazol-2-yl)-2,6-dimethylpiperazine-1-carboxylate] | < 10 |
| C[C@@H]1CN(c2ncc(C(F)(F)F)cn2)C[C@H](C)N1C(=O)NC1CC2(C1)CN(CC13CC4CC(CC(C4)C1)C3)C2 [Compound 327, (2R,6S)-N-[2-(adamantan-1-ylmethyl)-2-azaspiro[3.3]heptan-6-yl]-2,6-dimethyl-4-[5-(trifluoromethyl)pyrimidin-2-yl]piperazine-1-carboxamide] | 10 to 100 |
| C[C@@H]1CN(c2cnc(C(F)(F)F)cn2)[C@@H](C)CN1C(=O)NC1CC2(C1)CN(Cc1ccc(F)cc1)C2 [Compound 269, (2R,5S)-N-{2-[(4-fluorophenyl)methyl]-2-azaspiro[3.3]heptan-6-yl}-2,5-dimethyl-4-[5-(trifluoromethyl)pyrazin-2-yl]piperazine-1-carboxamide] | 10 to 100 |

The next lines start with the values.

| Ki [nM] | SMILES |
| --- | --- |
| 100 to 1000 | C[C@@H]1CN(c2ncc(C#N)cn2)C[C@H](C)N1C(=O)NC1CC2(C1)CN(Cc1ccccc1)C2 [Compound 66] |
| 10 to 100 | C[C@@H]1CN(c2ncc(C(F)(F)F)cn2)C[C@@H](C)N1C(=O)OCC1CC2(C1)CN(Cc1ccccc1)C2 [Compound 144, {2-benzyl-2-azaspiro[3.3]heptan-6-yl}methyl (2R,6R)-2,6-dimethyl-4-[5-(trifluoromethyl)pyrimidin-2-yl]piperazine-1-carboxylate] |
| 10 to 100 | C[C@@H]1CN(c2cnc(OC(F)(F)F)cn2)[C@H](C)CN1C(=O)OC1CC2(C1)CN(Cc1ccccc1)C2 [Compound 205, 2-benzyl-2-azaspiro[3.3]heptan-6-yl (2R,5R)-2,5-dimethyl-4-[5-(trifluoromethoxy)pyrazin-2-yl]piperazine-1-carboxylate] |
| 100 to 1000 | C[C@@H]1CN(c2ncc(C(F)(F)F)cn2)C[C@H](C)N1C(=O)NC1CC2(C1)CN(Cc1ccncc1)C2 [Compound 317, (2R,6S)-2,6-dimethyl-N-[2-(pyridin-4-ylmethyl)-2-azaspiro[3.3]heptan-6-yl]-4-[5-(trifluoromethyl)pyrimidin-2-yl]piperazine-1-carboxamide] |
| 100 to 1000 | C[C@@H]1CN(c2ncccc2C(F)(F)F)C[C@@H](C)N1C(=O)OC1CC2(C1)CN(Cc1ccccc1)C2 [Compound 190, 2-benzyl-2-azaspiro[3.3]heptan-6-yl (2R,6R)-2,6-dimethyl-4-[3-(trifluoromethyl)pyridin-2-yl)piperazine-1-carboxylate] |
| 10 to 100 | C[C@@H]1CN(c2ncc(OC(F)F)cn2)C[C@H](C)N1C(=O)NC1CC2(C1)CN(Cc1ccccc1)C2 [Compound 247, (2R,6S)-N-{2-benzyl-2-azaspiro[3.3]heptan-6-yl}-4-[5-(difluoromethoxy)pyrimidin-2-yl]-2,6-dimethylpiperazine-1-carboxamide] |
| < 10 | C[C@@H]1CN(c2ncc(C(F)(F)F)cn2)CCN1C(=O)OC1CC2(C1)CN(Cc1ccccc1)C2 [Compound 132, 2-benzyl-2-azaspiro[3.3]heptan-6-yl (2R)-2-methyl-4-[5-(trifluoromethyl)pyrimidin-2-yl]piperazine-1-carboxylate] |
| 10 to 100 | C[C@@H]1CN(c2cnc(C(F)(F)F)cn2)C[C@@H](C)N1C(=O)OC1CC2(C1)CN(Cc1ccccc1)C2 [Compound 142, 2-benzyl-2-azaspiro[3.3]heptan-6-yl (2R,6R)-2,6-dimethyl-4-[5-(trifluoromethyl)pyrazin-2-yl]piperazine-1-carboxylate] |
| 100 to 1000 | C[C@@H]1CN(c2ncc(C(F)(F)F)cn2)CCN1C(=O)OC1CC2(C1)CN(Cc1ccc(Cl)cc1)C2 [Compound 478, 2-[(4-chlorophenyl)methyl]-2-azaspiro[3.3]heptan-6-yl (2R)-2-methyl-4-[5-(trifluoromethyl)pyrimidin-2-yl]piperazine-1-carboxylate] |
| 10 to 100 | C[C@@H]1CN(c2ncc3cc(F)ccc3n2)C[C@H](C)N1C(=O)OC1CC2(C1)CN(Cc1ccccc1)C2 [Compound 453, 2-benzyl-2-azaspiro[3.3]heptan-6-yl (2R,6S)-4-(6-fluoroquinazolin-2-yl)-2,6-dimethylpiperazine-1-carboxylate] |
